According to US7459470B2, “N-oxide anthranylamide derivatives and their use as medicaments” (Schering AG, priority 2001, dated 2008):

Tests used:
VEGFR II (KDR) = VEGFR II (KDR) (Homo sapiens, UniProt P35968); assay: Inhibition of the KDR kinase activity (33P-ATP, poly-(Glu4Tyr) filter assay); type: biochemical; details: phosphate incorporation into poly-(Glu4Tyr), 10 minutes at room temperature
Experimental: • Stock Solutions • Stock solution A: 3 mmol of ATP in water, pH 7.0 (−70° C.) • Stock solution B: g-33P-ATP 1 mCi/100 μl • Stock solution C: poly-(Glu4 Tyr). 10 mg/ml in water Solution for Dilutions • Substrate solvent: 10 mmol of DTT, 10 mmol of manganese chloride, 100 mmol of magnesium chloride • Enzyme solution: 120 mmol of tris/HCl, pH 7.5, 10 μM of sodium vanadium oxide Sample Application 1 Inhibition of the KDR- and FLT-1 Kinase Activity in the Presence of the Compounds According to the Invention
In a microtiter plate (without protein binding) that tapers to a point, 10 μl of substrate mix (10 μl of volume of ATP stock solution A+25 μCi of g-33P-ATP (about 2.5 μl of stock solution B)+30 μl of poly-(Glu4Tyr) stock solution C+1.21 ml of substrate solvent), 10 μl of inhibitor solution (substances corresponding to the dilutions, 3% DMSO in substrate solvent as a control) and 10 μl of enzyme solution (11.25 μg of enzyme stock solution (KDR or FLT-1 kinase) are added at 4° C. in 1.25 ml of enzyme solution (dilute). It is thoroughly mixed and incubated for 10 minutes at room temperature. Then, 10 μl of stop solution (250 mmol of EDTA, pH 7.0) is added, mixed, and 10 μl of the solution is transferred to a P 81 phosphocellulose filter. Then, it is washed several times in 0.1 M phosphoric acid. The filter paper is dried, coated with Meltilex and measured in a microbeta counter.
The IC50 values are determined from the inhibitor concentration, which is necessary to inhibit the phosphate incorporation to 50% of the uninhibited incorporation after removal of the blank reading (EDTA-stopped reaction).

CYP1A2 = target: T1, CYP1A2 (Homo sapiens, UniProt P05177); assay: Cytochrome P450 inhibition, isoenzyme 1A2; type: in vitro ADME; details: baculovirus/insect cell-expressed recombinant human CYP1A2, read-out: Inhibition of the Cytochrome P450 Isoenzymes IC50, 1A2
T1 construct: host or cells: baculovirus/insect cells
T1 sequence (P05177 1-516): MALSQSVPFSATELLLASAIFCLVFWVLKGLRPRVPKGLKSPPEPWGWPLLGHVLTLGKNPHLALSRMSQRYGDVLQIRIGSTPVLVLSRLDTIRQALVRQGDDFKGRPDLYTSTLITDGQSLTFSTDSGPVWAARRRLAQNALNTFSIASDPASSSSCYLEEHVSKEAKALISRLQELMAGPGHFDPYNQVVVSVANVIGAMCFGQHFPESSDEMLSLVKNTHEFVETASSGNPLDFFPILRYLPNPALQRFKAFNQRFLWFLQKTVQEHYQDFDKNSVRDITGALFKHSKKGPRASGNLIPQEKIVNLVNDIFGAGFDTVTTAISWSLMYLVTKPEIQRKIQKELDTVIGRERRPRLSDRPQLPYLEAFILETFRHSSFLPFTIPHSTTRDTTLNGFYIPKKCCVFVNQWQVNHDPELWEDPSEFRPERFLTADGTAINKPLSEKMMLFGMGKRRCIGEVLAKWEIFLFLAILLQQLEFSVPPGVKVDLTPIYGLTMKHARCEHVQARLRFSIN
Experimental: (§1) The Cytochrome P450 inhibition was performed according to the publication of Crespi et al. (Anal Biochem., 248, 188-190 (1997)) with use of baculovirus/insect cell-expressed, human Cytochrome P 450 isoenzymes (1A2, 2C9, 2C19, 2D6, 3A4).

CYP2C9 = target: T2, CYP2C9 (Homo sapiens, UniProt P11712); assay: Cytochrome P450 inhibition, isoenzyme 2C9; type: in vitro ADME; details: baculovirus/insect cell-expressed recombinant human CYP2C9, read-out: Inhibition of the Cytochrome P450 Isoenzymes IC50, 2C9
T2 construct: host or cells: baculovirus/insect cells
T2 sequence (P11712 whole entry): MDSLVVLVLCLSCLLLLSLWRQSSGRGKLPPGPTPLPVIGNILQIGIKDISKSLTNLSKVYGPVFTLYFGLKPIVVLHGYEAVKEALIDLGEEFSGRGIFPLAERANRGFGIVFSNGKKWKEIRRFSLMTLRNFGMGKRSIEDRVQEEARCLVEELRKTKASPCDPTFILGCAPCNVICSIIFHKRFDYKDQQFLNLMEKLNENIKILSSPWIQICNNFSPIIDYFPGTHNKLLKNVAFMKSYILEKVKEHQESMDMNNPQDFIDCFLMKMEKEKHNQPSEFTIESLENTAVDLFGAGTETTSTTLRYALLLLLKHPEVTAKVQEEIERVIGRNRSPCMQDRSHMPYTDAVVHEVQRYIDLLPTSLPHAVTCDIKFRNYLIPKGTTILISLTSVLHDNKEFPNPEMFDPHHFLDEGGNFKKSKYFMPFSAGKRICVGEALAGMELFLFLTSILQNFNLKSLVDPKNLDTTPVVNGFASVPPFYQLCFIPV
Experimental: as §1

CYP2C19 = target: T3, CYP2C19 (Homo sapiens, UniProt P33261); assay: Cytochrome P450 inhibition, isoenzyme 2C19; type: in vitro ADME; details: baculovirus/insect cell-expressed recombinant human CYP2C19, read-out: Inhibition of the Cytochrome P450 Isoenzymes IC50, 2C19
T3 construct: host or cells: baculovirus/insect cells
T3 sequence (P33261 whole entry): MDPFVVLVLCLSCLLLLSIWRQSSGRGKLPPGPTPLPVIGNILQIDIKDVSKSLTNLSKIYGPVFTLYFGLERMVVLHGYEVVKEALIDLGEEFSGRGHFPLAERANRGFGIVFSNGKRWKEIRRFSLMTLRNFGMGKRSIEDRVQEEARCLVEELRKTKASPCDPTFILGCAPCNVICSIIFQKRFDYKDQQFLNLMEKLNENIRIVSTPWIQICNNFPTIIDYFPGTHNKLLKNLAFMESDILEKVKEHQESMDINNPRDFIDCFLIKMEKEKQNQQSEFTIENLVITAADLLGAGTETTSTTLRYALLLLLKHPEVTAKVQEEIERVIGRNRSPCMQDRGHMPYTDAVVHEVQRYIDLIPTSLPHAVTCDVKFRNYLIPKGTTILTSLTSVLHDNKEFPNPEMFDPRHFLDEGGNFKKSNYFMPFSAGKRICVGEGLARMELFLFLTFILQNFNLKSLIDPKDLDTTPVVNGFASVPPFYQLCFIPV
Experimental: as §1

CYP2D6 = target: T4, CYP2D6 (Homo sapiens, UniProt P10635); assay: Cytochrome P450 inhibition, isoenzyme 2D6; type: in vitro ADME; details: baculovirus/insect cell-expressed recombinant human CYP2D6, read-out: Inhibition of the Cytochrome P450 Isoenzymes IC50, 2D6
T4 construct: host or cells: baculovirus/insect cells
T4 sequence (P10635 whole entry): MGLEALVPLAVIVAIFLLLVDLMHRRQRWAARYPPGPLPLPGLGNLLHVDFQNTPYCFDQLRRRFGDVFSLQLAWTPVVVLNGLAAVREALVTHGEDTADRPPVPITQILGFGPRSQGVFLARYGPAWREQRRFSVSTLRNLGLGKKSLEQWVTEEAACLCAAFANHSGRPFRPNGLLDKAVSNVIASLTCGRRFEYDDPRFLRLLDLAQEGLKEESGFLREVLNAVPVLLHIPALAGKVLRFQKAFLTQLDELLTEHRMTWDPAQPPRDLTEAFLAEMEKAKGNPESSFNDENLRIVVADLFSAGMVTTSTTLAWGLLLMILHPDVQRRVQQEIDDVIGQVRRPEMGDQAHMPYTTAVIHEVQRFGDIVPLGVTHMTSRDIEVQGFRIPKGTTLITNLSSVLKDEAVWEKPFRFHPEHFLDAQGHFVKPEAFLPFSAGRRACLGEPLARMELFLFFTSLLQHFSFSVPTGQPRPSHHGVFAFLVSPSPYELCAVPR
Experimental: as §1

CYP3A4 = target: T5, CYP3A4 (Homo sapiens, UniProt P08684); assay: Cytochrome P450 inhibition, isoenzyme 3A4; type: in vitro ADME; details: baculovirus/insect cell-expressed recombinant human CYP3A4, read-out: Inhibition of the Cytochrome P450 Isoenzymes IC50, 3A4
T5 construct: host or cells: baculovirus/insect cells
T5 sequence (P08684 whole entry): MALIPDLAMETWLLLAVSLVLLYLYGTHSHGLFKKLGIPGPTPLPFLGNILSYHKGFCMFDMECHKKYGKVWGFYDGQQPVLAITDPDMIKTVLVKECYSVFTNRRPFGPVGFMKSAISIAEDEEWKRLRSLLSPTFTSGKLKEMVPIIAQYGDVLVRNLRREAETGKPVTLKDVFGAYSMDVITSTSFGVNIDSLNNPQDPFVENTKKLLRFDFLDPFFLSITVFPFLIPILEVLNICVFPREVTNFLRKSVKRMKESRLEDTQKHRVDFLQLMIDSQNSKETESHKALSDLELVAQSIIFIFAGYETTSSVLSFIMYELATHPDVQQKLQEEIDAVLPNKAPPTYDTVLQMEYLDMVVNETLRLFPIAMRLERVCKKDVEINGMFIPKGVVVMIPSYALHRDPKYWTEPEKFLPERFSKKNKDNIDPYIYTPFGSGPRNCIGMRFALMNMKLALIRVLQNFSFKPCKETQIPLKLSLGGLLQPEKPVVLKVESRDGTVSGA
Experimental: as §1

VEGFR II (KDR), sequence (P35968 20-1356, species assumed): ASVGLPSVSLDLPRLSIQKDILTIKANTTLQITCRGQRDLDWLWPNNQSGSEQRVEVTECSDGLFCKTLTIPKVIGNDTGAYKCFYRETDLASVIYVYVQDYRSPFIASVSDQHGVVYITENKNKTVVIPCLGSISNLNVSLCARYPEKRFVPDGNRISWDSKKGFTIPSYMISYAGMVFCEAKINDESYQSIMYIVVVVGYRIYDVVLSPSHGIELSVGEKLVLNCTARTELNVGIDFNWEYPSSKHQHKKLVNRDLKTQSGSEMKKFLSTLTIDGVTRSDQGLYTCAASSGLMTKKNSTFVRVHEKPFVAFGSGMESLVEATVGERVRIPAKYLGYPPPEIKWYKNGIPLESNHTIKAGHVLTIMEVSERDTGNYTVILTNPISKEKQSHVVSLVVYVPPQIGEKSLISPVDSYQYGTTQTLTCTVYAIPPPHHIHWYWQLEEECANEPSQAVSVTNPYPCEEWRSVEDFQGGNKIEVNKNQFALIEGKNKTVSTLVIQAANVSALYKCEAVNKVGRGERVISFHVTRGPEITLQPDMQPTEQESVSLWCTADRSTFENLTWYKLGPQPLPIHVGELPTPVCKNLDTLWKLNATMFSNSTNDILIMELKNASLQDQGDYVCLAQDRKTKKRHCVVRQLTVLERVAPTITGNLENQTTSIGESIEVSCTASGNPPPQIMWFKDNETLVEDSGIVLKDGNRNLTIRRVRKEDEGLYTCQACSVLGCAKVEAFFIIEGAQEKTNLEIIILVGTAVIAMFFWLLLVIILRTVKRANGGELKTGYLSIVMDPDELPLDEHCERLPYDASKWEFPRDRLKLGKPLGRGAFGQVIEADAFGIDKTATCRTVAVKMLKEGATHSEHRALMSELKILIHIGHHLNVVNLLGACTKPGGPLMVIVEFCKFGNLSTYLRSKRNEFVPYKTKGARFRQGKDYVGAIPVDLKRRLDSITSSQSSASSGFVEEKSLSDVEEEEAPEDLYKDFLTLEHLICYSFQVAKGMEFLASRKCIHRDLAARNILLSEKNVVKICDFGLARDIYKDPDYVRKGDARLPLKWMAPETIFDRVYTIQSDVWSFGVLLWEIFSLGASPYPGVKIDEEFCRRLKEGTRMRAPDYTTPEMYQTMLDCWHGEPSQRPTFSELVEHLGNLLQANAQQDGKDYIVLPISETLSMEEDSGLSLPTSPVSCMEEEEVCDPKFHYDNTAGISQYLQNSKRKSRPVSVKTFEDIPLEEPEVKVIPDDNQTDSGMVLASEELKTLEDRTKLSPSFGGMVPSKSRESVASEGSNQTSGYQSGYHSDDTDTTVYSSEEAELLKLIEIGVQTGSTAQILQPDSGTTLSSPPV

SMILES | IC50 (VEGFR II (KDR)) [nM] | IC50 (CYP1A2) [nM] | IC50 (CYP2C9) [nM] | IC50 (CYP2C19) [nM] | IC50 (CYP2D6) [nM] | IC50 (CYP3A4) [nM] | melting point [°C]
O=C(Nc1cc2ccccc2cn1)c1ccccc1NCc1cc[n+]([O-])cc1 [Example 1, N-(Isoquinolin-3-yl)-2-(4-pyridylmethyl)aminobenzoic acid amide-N-oxide] | 30 | > 30000 | 5200 | 3600 | > 30000 | > 30000 | 
O=C(Nc1cccc(C(F)(F)F)c1)c1cccnc1NCc1cc[n+]([O-])cc1 [Example 8] | 50 |  |  |  |  |  | 
O=C(Nc1cccc(C(F)(F)F)c1)c1ccccc1NCc1cc[n+]([O-])cc1 [Example 4] | 50 |  |  |  |  |  | 181 to 184
O=C(Nc1cc2ccccc2cn1)c1cccnc1NCc1cc[n+]([O-])cc1 [Example 7] | 50 |  |  |  |  |  | 196.2
O=C(Nc1cc2ccccc2cn1)c1ccccc1NCc1ccc[n+]([O-])c1 [Example 2] | 200 |  |  |  |  |  | 191.9
